The record followed here is publication PMC7265341, “Quantifying CDK inhibitor selectivity in live cells” (Nature Communications, 2020).

Values joined by “and” are separate entries in the source; they are usually repeats but may differ in a detail not shown here. Identical values can stand only once. Like-named read-outs stand apart in the source and are kept apart here.

For one test, the target named is CDK14/Cyclin Y (Homo sapiens, UniProt O94921). Nature of the test: NanoBRET live-cell target engagement, CDK14-NanoLuc/Cyclin Y in HEK-293. In kind it is binding.
The next test concerns the target CDK7 (Homo sapiens, UniProt P50613). Nature of the test: NanoBRET live-cell target engagement, NanoLuc-CDK7 in HEK-293. In kind it is binding. Particulars: for IC50: read-out: IC50.
Another test concerns phospho-Rb (Ser 807/811). Briefly: Endogenous phospho-Rb (Ser 807/811) Lumit immunoassay in MCF7 cells.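 On all read-outs here: Serum-starved cells exposed to compounds for 24 h with 25 ng/mL hEGF, then lysed, phospho-Rb detected by split-luciferase antibody pair luminescence.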 The format is cell-based, human. Particulars: for Normalized pRB (%): Panel E.
Where [1] appears, read: CDK14/Y, average, read-out: Inhibition at 10µM (%).
The mark [2] stands for this setting: CDK14/Y, experiment 1, read-out: Inhibition at 10µM (%).
[3] abbreviates: CDK14/Y, experiment 2, read-out: Inhibition at 10µM (%).
The mark [4] stands for this setting: CDK7, average (± SEM where n=3).
The mark [5] stands for this setting: CDK7, average, read-out: Inhibition at 10µM (%).
The mark [6] stands for this setting: CDK7, experiment 1, read-out: Inhibition at 10µM (%).
Setting [7] is: CDK7, experiment 2, read-out: Inhibition at 10µM (%).

Sequence of CDK7 (P50613 whole entry): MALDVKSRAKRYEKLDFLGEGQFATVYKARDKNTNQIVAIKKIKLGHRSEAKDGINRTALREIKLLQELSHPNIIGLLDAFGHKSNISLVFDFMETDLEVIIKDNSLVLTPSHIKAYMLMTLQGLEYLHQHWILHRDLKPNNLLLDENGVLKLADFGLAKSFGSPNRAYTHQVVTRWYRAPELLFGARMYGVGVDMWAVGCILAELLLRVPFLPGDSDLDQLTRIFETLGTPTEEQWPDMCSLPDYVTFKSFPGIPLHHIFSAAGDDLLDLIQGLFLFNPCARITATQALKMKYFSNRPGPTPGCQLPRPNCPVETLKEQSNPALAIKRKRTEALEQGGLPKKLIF
Sequence of CDK14/Cyclin Y (O94921 whole entry): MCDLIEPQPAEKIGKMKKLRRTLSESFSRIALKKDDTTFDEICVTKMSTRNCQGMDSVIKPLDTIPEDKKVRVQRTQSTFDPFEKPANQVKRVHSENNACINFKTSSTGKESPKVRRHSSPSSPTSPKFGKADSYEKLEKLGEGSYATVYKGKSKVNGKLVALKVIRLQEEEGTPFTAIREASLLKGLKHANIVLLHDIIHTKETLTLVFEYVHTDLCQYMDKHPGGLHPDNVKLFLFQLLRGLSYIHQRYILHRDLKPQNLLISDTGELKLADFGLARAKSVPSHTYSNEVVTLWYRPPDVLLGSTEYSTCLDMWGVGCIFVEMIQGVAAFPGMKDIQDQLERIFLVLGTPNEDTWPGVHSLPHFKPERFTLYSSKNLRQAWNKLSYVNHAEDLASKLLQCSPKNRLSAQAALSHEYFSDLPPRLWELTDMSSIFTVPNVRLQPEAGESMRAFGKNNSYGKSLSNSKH
Sequence of CDK14/Cyclin Y (Q8ND76 whole entry partner): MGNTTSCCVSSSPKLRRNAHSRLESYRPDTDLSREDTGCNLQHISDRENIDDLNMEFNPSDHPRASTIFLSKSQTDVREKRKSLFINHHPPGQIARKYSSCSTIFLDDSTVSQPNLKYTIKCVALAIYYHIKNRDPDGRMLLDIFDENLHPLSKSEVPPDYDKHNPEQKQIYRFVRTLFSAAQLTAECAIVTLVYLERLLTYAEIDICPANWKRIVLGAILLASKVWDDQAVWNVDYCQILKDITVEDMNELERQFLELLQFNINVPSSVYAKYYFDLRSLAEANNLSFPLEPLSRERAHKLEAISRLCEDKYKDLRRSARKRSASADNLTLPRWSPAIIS

For `COc1ccc(F)cc1-c1cc(NC(=O)C2CCCNC2)ncc1Cl` (stereo not shown) [CDK inhibitor 2], the inhibition at 10 µM was 86.5% on CDK14/Cyclin Y (setting [1]); 89.6% at CDK14/Cyclin Y (setting [2]); 83.5% on CDK14/Cyclin Y (setting [3]); 82.8% on CDK7 (setting [5]); 83.3% on CDK7 (setting [6]); 82.3% at CDK7 (setting [7]). The IC50 at CDK7 (setting [4]) came out at 120 ± 50 nM; on CDK7 (CDK7, experiment 1), 83 nM; at CDK7 (CDK7, experiment 2) it was 58 nM; at CDK7 (CDK7, experiment 3) it was 215 nM.

Consider `CN1CCC(c2c(O)cc(O)c3c(=O)cc(-c4ccccc4Cl)oc23)C1CO` (stereo not shown) [P276-00], for which the “Inhibition at 10µM (%)” value on CDK14/Cyclin Y (CDK14/Y, average) is listed as 50.9%; on CDK14/Cyclin Y (CDK14/Y, experiment 1), 51.1%; at CDK14/Cyclin Y (CDK14/Y, experiment 2) it was 50.7%; at CDK7 (CDK7, average), 32.2%; at CDK7 (CDK7, experiment 1), 38.1%; at CDK7 (CDK7, experiment 2) it was 26.2%.

`CCN1CCN(Cc2ccc(Nc3ncc(F)c(-c4cc(F)c5nc(C)n(C(C)C)c5c4)n3)nc2)CC1` [Abemaciclib] had a concentration for half-maximal inhibition (IC50) in the test with phospho-Rb (Ser 807/811) (Homo sapiens, MCF7 cells, Panel F pIC50 correlations) of 45.7 nM. Further, the “Normalized pRB (%)” value in the test on phospho-Rb (Ser 807/811) (LOG10([Compound]) (LOG10(µM)) 0.0457575) was 13.6% and 13.3%; in the test on phospho-Rb (Ser 807/811) (LOG10([Compound]) (LOG10(µM)) 0.522879) it was 24.5% and 23.6% and 23.2%; in the test on phospho-Rb (Ser 807/811) (LOG10([Compound]) (LOG10(µM)) 1), 20.9% and 22.5% and 21.5%; with phospho-Rb (Ser 807/811) (LOG10([Compound]) (LOG10(µM)) -0.431364), 18% and 19.1% and 18.8%; in the test with phospho-Rb (Ser 807/811) (LOG10([Compound]) (LOG10(µM)) -0.908485) it was 36.6% and 37.6% and 36.8%; with phospho-Rb (Ser 807/811) (LOG10([Compound]) (LOG10(µM)) -1.38561), 61.8% and 62.2% and 61%. Also, the “Normalized pRB (%)” value with phospho-Rb (Ser 807/811) (LOG10([Compound]) (LOG10(µM)) -1.86273) was 80.7% and 77.6% and 81.4%; with phospho-Rb (Ser 807/811) (LOG10([Compound]) (LOG10(µM)) -2.33985), 90.7% and 95% and 86.6%; in the test with phospho-Rb (Ser 807/811) (LOG10([Compound]) (LOG10(µM)) -2.81697), 91.8% and 94.4% and 95%; in the test on phospho-Rb (Ser 807/811) (LOG10([Compound]) (LOG10(µM)) -3.29409) it was 93.5% and 103% and 101.1%. In addition, the inhibition at 10 µM was found to be 63.4% at CDK7 (CDK7, 10µM, average of replicates, read-out: Inhibition at 10µM (%) Average); 65.2% on CDK7 (CDK7, 10µM, read-out: Inhibition at 10µM (%) Replicate 1); 61.7% at CDK7 (CDK7, 10µM, read-out: Inhibition at 10µM (%) Replicate 2).

Consider `C[C@H]1CC[C@H](n2c3cnccc3c3cnc(Nc4ccc5c(n4)CCN(C(=O)CO)C5)nc32)CC1` [AMG 925], for which the IC50 at CDK14/Cyclin Y (CDK14/Y, n=3 average ± SEM, n=2 average to 2 significant figures, read-out: IC50 (nM) Average*) came to 600 ± 200 nM; at CDK14/Cyclin Y (CDK14/Y, read-out: IC50 (nM) Replicate 1), 217 nM; on CDK14/Cyclin Y (CDK14/Y, read-out: IC50 (nM) Replicate 2) it was 690 nM; at CDK14/Cyclin Y (CDK14/Y, read-out: IC50 (nM) Replicate 3) it was 766 nM. For the same compound, the inhibition at 10 µM on CDK14/Cyclin Y (read-out: Inhibition at 10µM (%) Average, CDK14/Y, 10µM, average of replicates) came to 32.4%; at CDK14/Cyclin Y (read-out: Inhibition at 10µM (%) Replicate 1, CDK14/Y, 10µM), 39%; on CDK14/Cyclin Y (read-out: Inhibition at 10µM (%) Replicate 2, CDK14/Y, 10µM), 25.8%; at CDK7 (read-out: Inhibition at 10µM (%) Average, CDK7, 10µM, average of replicates) it was 27.8%; on CDK7 (read-out: Inhibition at 10µM (%) Replicate 1, CDK7, 10µM) it was 10.8%; on CDK7 (read-out: Inhibition at 10µM (%) Replicate 2, CDK7, 10µM), 44.9%.

For the compound `CNC(=O)c1nn(C)c2c1C(C)(C)Cc1cnc(Nc3ccc(N4CCN(C)CC4)cc3)nc1-2` [Milciclib], the inhibition at 10 µM at CDK14/Cyclin Y (setting [1]) came to 74.3%; at CDK14/Cyclin Y (setting [2]) it was 71.9%; on CDK14/Cyclin Y (setting [3]), 76.8%; on CDK7 (setting [5]), 92.1%; at CDK7 (setting [6]), 89.4%; on CDK7 (setting [7]), 94.8%.

In the case of `CC(C)c1c2cc(-c3ccnc(N[C@H]4CC[C@H](NC5CCOCC5)CC4)n3)ccc2nn1C` [LY2857785], the “Inhibition at 10µM (%)” value amounted to 90.6% at CDK14/Cyclin Y (CDK14/Y, average); 90.3% on CDK14/Cyclin Y (CDK14/Y, experiment 1); 90.9% at CDK14/Cyclin Y (CDK14/Y, experiment 2); 92.6% on CDK7 (CDK7, average); 91.7% at CDK7 (CDK7, experiment 1); 93.4% on CDK7 (CDK7, experiment 2). Besides, the half-inhibitory concentration (IC50) turned out to be 510 nM on CDK14/Cyclin Y (CDK14/Y, average (± SEM where n=3), read-out: IC50); 392 nM on CDK14/Cyclin Y (CDK14/Y, experiment 1, read-out: IC50); 630 nM at CDK14/Cyclin Y (CDK14/Y, experiment 2, read-out: IC50); 31 nM on CDK7 (setting [4]); 28 nM at CDK7 (CDK7, experiment 1); 34 nM at CDK7 (CDK7, experiment 2).

With `N#CCNC(=O)c1ccc(-c2ccnc(Nc3ccc(N4CCOCC4)cc3)n2)cc1` [Momelotinib], the inhibition at 10 µM at CDK14/Cyclin Y (setting [1]) was determined as 16.5%; at CDK14/Cyclin Y (setting [2]) it was 15.4%; on CDK14/Cyclin Y (setting [3]) it was 17.7%; at CDK7 (setting [5]), 50.4%; on CDK7 (setting [6]), 28.7%; at CDK7 (setting [7]) it was 72.1%. The IC50 on CDK7 (setting [4]) was 820 nM; on CDK7 (CDK7, experiment 1), 760 nM; on CDK7 (CDK7, experiment 2), 880 nM.
